Assay results as given in patent US11793849B2, “Method of Chinese herbal medicine extract used for treating multiple diseases caused by drug resistant bacteria infection” (priority 2016, dated 2023).
≈ marks a conversion by molar mass, not a printed value. Where two headings read alike, the source gives them in different places.

Tested on: MDRAB
Experiment: MIC determination, microdilution broth method
Assay type: cell-based, Acinetobacter baumannii
[1] = single use, 20 MDRABs, EA=10% ethanol extract
[2] = single use, 20 MDRABs, EA=water extract
[3] = single use, 20 MDRABs, section of the 95% ethanol extract

Procedure: Determination methods of a Minimal Inhibitory Concentration (MIC) and a Minimum Bactericidal Concentration (MBC) of a test product: the MIC and the MBC of the Pithecellobium clypearia Benth water or ethanol extract to the MDRAB are determined by a microdilution broth method. And it is operated by referring to the microdilution broth method recommended by National Committee for Clinical Laboratory Standards (NCCLS).

C[C@H]1COc2c(N3CCN(C)CC3)c(F)cc3c(=O)c(C(=O)O)cn1c23 [LVX, Levofloxacin]
MIC (Acinetobacter baumannii, strain A7, single use, EA=water extract, read-out: MIC): 8 mg/L (≈ 22.1 µM) | MIC (Acinetobacter baumannii, strain A8, EA=60% ethanol extract, read-out: MIC): 4 mg/L (≈ 11.1 µM) | MIC (Acinetobacter baumannii, strain A8, EA=95% ethanol extract, read-out: MIC): 4 mg/L (≈ 11.1 µM) | MIC (Acinetobacter baumannii, strain A8, EA=P. clypearia 95% ethanol extract, read-out: single-use MIC): 4 mg/L (≈ 11.1 µM) | MIC (Acinetobacter baumannii, strain A8, single use, EA=10% ethanol extract, read-out: MIC): 4 mg/L (≈ 11.1 µM) | MIC (Acinetobacter baumannii, strain A8, single use, EA=water extract, read-out: MIC): 4 mg/L (≈ 11.1 µM) | MIC (Acinetobacter baumannii, strain A9, EA=60% ethanol extract, read-out: MIC): 4 mg/L (≈ 11.1 µM) | MIC (Acinetobacter baumannii, strain A9, EA=95% ethanol extract, read-out: MIC): 4 mg/L (≈ 11.1 µM) | MIC (Acinetobacter baumannii, strain A9, EA=P. clypearia 95% ethanol extract, read-out: single-use MIC): 4 mg/L (≈ 11.1 µM) | MIC (Acinetobacter baumannii, strain A9, single use, EA=10% ethanol extract, read-out: MIC): 4 mg/L (≈ 11.1 µM) | MIC (Acinetobacter baumannii, strain A9, single use, EA=water extract, read-out: MIC): 4 mg/L (≈ 11.1 µM) | MIC (Acinetobacter baumannii, strain A10, EA=60% ethanol extract, read-out: MIC): 32 mg/L (≈ 88.6 µM) | MIC (Acinetobacter baumannii, strain A10, EA=95% ethanol extract, read-out: MIC): 32 mg/L (≈ 88.6 µM) | MIC (Acinetobacter baumannii, strain A10, EA=P. clypearia 95% ethanol extract, read-out: single-use MIC): 32 mg/L (≈ 88.6 µM) | MIC (Acinetobacter baumannii, strain A10, single use, EA=10% ethanol extract, read-out: MIC): 32 mg/L (≈ 88.6 µM) | MIC (Acinetobacter baumannii, strain A10, single use, EA=water extract, read-out: MIC): 32 mg/L (≈ 88.6 µM) | MIC (Acinetobacter baumannii, strain A11, EA=60% ethanol extract, read-out: MIC): 4 mg/L (≈ 11.1 µM) | MIC (Acinetobacter baumannii, strain A11, EA=95% ethanol extract, read-out: MIC): 4 mg/L (≈ 11.1 µM) | MIC (Acinetobacter baumannii, strain A11, EA=P. clypearia 95% ethanol extract, read-out: single-use MIC): 4 mg/L (≈ 11.1 µM) | MIC (Acinetobacter baumannii, strain A11, single use, EA=10% ethanol extract, read-out: MIC): 4 mg/L (≈ 11.1 µM) | MIC (Acinetobacter baumannii, strain A11, single use, EA=water extract, read-out: MIC): 4 mg/L (≈ 11.1 µM) | MIC (Acinetobacter baumannii, strain A12, EA=60% ethanol extract, read-out: MIC): 32 mg/L (≈ 88.6 µM) | MIC (Acinetobacter baumannii, strain A12, EA=95% ethanol extract, read-out: MIC): 32 mg/L (≈ 88.6 µM) | MIC (Acinetobacter baumannii, strain A12, EA=P. clypearia 95% ethanol extract, read-out: single-use MIC): 32 mg/L (≈ 88.6 µM) | MIC (Acinetobacter baumannii, strain A12, single use, EA=10% ethanol extract, read-out: MIC): 32 mg/L (≈ 88.6 µM) | MIC (Acinetobacter baumannii, strain A12, single use, EA=water extract, read-out: MIC): 32 mg/L (≈ 88.6 µM) | MIC (Acinetobacter baumannii, strain A13, EA=60% ethanol extract, read-out: MIC): 32 mg/L (≈ 88.6 µM) | MIC (Acinetobacter baumannii, strain A13, EA=95% ethanol extract, read-out: MIC): 32 mg/L (≈ 88.6 µM) | MIC (Acinetobacter baumannii, strain A13, EA=P. clypearia 95% ethanol extract, read-out: single-use MIC): 32 mg/L (≈ 88.6 µM) | MIC (Acinetobacter baumannii, strain A13, single use, EA=10% ethanol extract, read-out: MIC): 32 mg/L (≈ 88.6 µM) | MIC (Acinetobacter baumannii, strain A13, single use, EA=water extract, read-out: MIC): 32 mg/L (≈ 88.6 µM) | MIC (Acinetobacter baumannii, strain A14, EA=60% ethanol extract, read-out: MIC): 16 mg/L (≈ 44.3 µM) | MIC (Acinetobacter baumannii, strain A14, EA=95% ethanol extract, read-out: MIC): 16 mg/L (≈ 44.3 µM) | MIC (Acinetobacter baumannii, strain A14, EA=P. clypearia 95% ethanol extract, read-out: single-use MIC): 16 mg/L (≈ 44.3 µM) | MIC (Acinetobacter baumannii, strain A14, single use, EA=10% ethanol extract, read-out: MIC): 16 mg/L (≈ 44.3 µM) | MIC (Acinetobacter baumannii, strain A14, single use, EA=water extract, read-out: MIC): 16 mg/L (≈ 44.3 µM) | MIC (Acinetobacter baumannii, strain A15, EA=60% ethanol extract, read-out: MIC): 32 mg/L (≈ 88.6 µM) | MIC (Acinetobacter baumannii, strain A15, EA=95% ethanol extract, read-out: MIC): 32 mg/L (≈ 88.6 µM) | MIC (Acinetobacter baumannii, strain A15, EA=P. clypearia 95% ethanol extract, read-out: single-use MIC): 32 mg/L (≈ 88.6 µM) | MIC (Acinetobacter baumannii, strain A15, single use, EA=10% ethanol extract, read-out: MIC): 32 mg/L (≈ 88.6 µM) | MIC (Acinetobacter baumannii, strain A15, single use, EA=water extract, read-out: MIC): 32 mg/L (≈ 88.6 µM) | MIC (Acinetobacter baumannii, strain A16, EA=60% ethanol extract, read-out: MIC): 8 mg/L (≈ 22.1 µM) | MIC (Acinetobacter baumannii, strain A16, EA=95% ethanol extract, read-out: MIC): 8 mg/L (≈ 22.1 µM) | MIC (Acinetobacter baumannii, strain A16, EA=P. clypearia 95% ethanol extract, read-out: single-use MIC): 8 mg/L (≈ 22.1 µM) | MIC (Acinetobacter baumannii, strain A16, single use, EA=10% ethanol extract, read-out: MIC): 8 mg/L (≈ 22.1 µM) | MIC (Acinetobacter baumannii, strain A16, single use, EA=water extract, read-out: MIC): 8 mg/L (≈ 22.1 µM) | MIC (Acinetobacter baumannii, strain A17, EA=60% ethanol extract, read-out: MIC): 16 mg/L (≈ 44.3 µM) | MIC (Acinetobacter baumannii, strain A17, EA=95% ethanol extract, read-out: MIC): 16 mg/L (≈ 44.3 µM) | MIC (Acinetobacter baumannii, strain A17, EA=P. clypearia 95% ethanol extract, read-out: single-use MIC): 16 mg/L (≈ 44.3 µM) | MIC (Acinetobacter baumannii, strain A17, single use, EA=10% ethanol extract, read-out: MIC): 16 mg/L (≈ 44.3 µM) | MIC (Acinetobacter baumannii, strain A17, single use, EA=water extract, read-out: MIC): 16 mg/L (≈ 44.3 µM) | MIC (Acinetobacter baumannii, strain A18, EA=60% ethanol extract, read-out: MIC): 8 mg/L (≈ 22.1 µM) | MIC (Acinetobacter baumannii, strain A18, EA=95% ethanol extract, read-out: MIC): 8 mg/L (≈ 22.1 µM) | MIC (Acinetobacter baumannii, strain A18, EA=P. clypearia 95% ethanol extract, read-out: single-use MIC): 8 mg/L (≈ 22.1 µM) | MIC (Acinetobacter baumannii, strain A18, single use, EA=10% ethanol extract, read-out: MIC): 8 mg/L (≈ 22.1 µM) | MIC (Acinetobacter baumannii, strain A18, single use, EA=water extract, read-out: MIC): 8 mg/L (≈ 22.1 µM) | MIC (Acinetobacter baumannii, strain A19, EA=60% ethanol extract, read-out: MIC): 16 mg/L (≈ 44.3 µM) | MIC (Acinetobacter baumannii, strain A19, EA=95% ethanol extract, read-out: MIC): 16 mg/L (≈ 44.3 µM) | MIC (Acinetobacter baumannii, strain A19, EA=P. clypearia 95% ethanol extract, read-out: single-use MIC): 16 mg/L (≈ 44.3 µM) | MIC (Acinetobacter baumannii, strain A19, single use, EA=10% ethanol extract, read-out: MIC): 16 mg/L (≈ 44.3 µM) | MIC (Acinetobacter baumannii, strain A19, single use, EA=water extract, read-out: MIC): 16 mg/L (≈ 44.3 µM) | MIC (Acinetobacter baumannii, strain A20, EA=60% ethanol extract, read-out: MIC): 16 mg/L (≈ 44.3 µM) | MIC (Acinetobacter baumannii, strain A20, EA=95% ethanol extract, read-out: MIC): 16 mg/L (≈ 44.3 µM) | MIC (Acinetobacter baumannii, strain A20, EA=P. clypearia 95% ethanol extract, read-out: single-use MIC): 16 mg/L (≈ 44.3 µM) | MIC (Acinetobacter baumannii, strain A20, single use, EA=10% ethanol extract, read-out: MIC): 16 mg/L (≈ 44.3 µM) | MIC (Acinetobacter baumannii, strain A20, single use, EA=water extract, read-out: MIC): 16 mg/L (≈ 44.3 µM) | MIC (Acinetobacter baumannii, strain AS, EA=P. clypearia 95% ethanol extract, read-out: single-use MIC): 4 mg/L (≈ 11.1 µM) | MIC50 (Acinetobacter baumannii, single use, 20 MDRABs, section of the 60% ethanol extract, read-out: MIC50): 8 mg/L (≈ 22.1 µM) | MIC90 (Acinetobacter baumannii, single use, 20 MDRABs, section of the 60% ethanol extract, read-out: MIC90): 32 mg/L (≈ 88.6 µM) | MIC50 (MDRABs, EA=60% ethanol extract): 8 mg/L (≈ 22.1 µM) | MIC90 (MDRABs, EA=60% ethanol extract): 32 mg/L (≈ 88.6 µM) | MIC Range (MDRABs, EA=60% ethanol extract): 0.5 to 32 mg/L | MIC50 (MDRABs, EA=95% ethanol extract): 8 mg/L (≈ 22.1 µM) | MIC90 (MDRABs, EA=95% ethanol extract): 32 mg/L (≈ 88.6 µM) | MIC Range (MDRABs, EA=95% ethanol extract): 0.5 to 32 mg/L | MIC50 [1]: 8 mg/L (≈ 22.1 µM) | MIC90 [1]: 32 mg/L (≈ 88.6 µM) | MIC Range [1]: 0.5 to 32 mg/L | MIC50 [2]: 8 mg/L (≈ 22.1 µM) | MIC90 [2]: 32 mg/L (≈ 88.6 µM) | MIC Range [2]: 0.5 to 32 mg/L | MIC50 [3]: 8 mg/L (≈ 22.1 µM) | MIC90 [3]: 32 mg/L (≈ 88.6 µM)
